In US20120107417A1, “Effective Antitumor Treatments” (PHARMA MAR, S.A., priority 2000, published 2012):
Where two headings read alike, the source gives them in different places.

How the values were obtained:
[1] = system: human rabdomyosarcoma zenograft TE671; experiment: ET-743/doxorubicin against TE671 xenograft in athymic (nude) mice; assay type: in vivo
Protocol: In vivo: Single iv treatments (ET-743, 0.1 mg/Kg; DOX, 10 mg/Kg) were administered in nude mice when xenograft tumors weighed approximately 100 mg.

[2] = system: murine fibrosarcoma UV2237; experiment: ET-743/doxorubicin against murine fibrosarcoma UV2237 in mice; assay type: in vivo; conditions: alone or combination
UV2237/ADR = experiment: ET-743/doxorubicin against mdr-resistant subline UV2237/ADR in mice; assay type: in vivo, murine; conditions: alone or combination
HT-1080 = experiment: SRB cytotoxicity assay and Chou-Talalay combination index, HT-1080; assay type: cell-based, human
Protocol: (§1) Soft tissue sarcoma cell lines, HT-1080 and HS-18 were maintained as monolayer cultures in RP<I-1640 containing 10% fetal bovine serum.
(§2) Cytotoxicity to drugs was determined by SRB cytotoxicity assay carried out in 96-well microtiter plates as described. Cells were plated in duplicate wells (5000 cells/well) and exposed to drugs at different concentrations. Cells were fixed with 50% TCA solution for 1 h and 0.4% SRB (Sigma) was added to each well. After a 30 min incubation, the plate were washed with 1% acetic acid and read at 570 nm on a Biowhitaker microplate reader 2001. The wells with cells containing no drugs and with medium plus drugs but no cells were used as positive and negative controls, respectively.
(§3) Cells were seeded into 96-well plates, as described previously. Cells were treated with seven different concentrations of the single drugs or combinations mixture at 1:100 (ET-743: the other drugs) molar ratio. After 72 h exposure, growth inhibition was measured using the SRB assay.
(§4) Using the same experimental setup described above, we exposed cells to three different concentrations of drugs which represents the IC25, IC50, IC75 of ET-743, DXR, TMTX and paclitaxel, respectively. After 24 hours pre-treatment with ET743 or the combination drug, the second drugs were added to the respective wells for 48 h. Growth inhibition was determined using the SRB assay.)
(§5) The CI was calculated by the Chou-Talalay equation, which takes into account both potency (Dm or IC50) and the shape of the dose effect curve (the m value). The general equation for the classic isobologram (CI=1) is given by:
(§6) CI=(D)1/(Dx)1+(D)2/(Dx)2 (A)

HS-18 = experiment: SRB cytotoxicity assay and Chou-Talalay combination index, HS-18; assay type: cell-based, human
Protocol: as §1, §2, §3, §4, §5, §6

HT-1080 cells = experiment: Cell cycle analysis (propidium iodide, FACS), HT-1080; assay type: cell-based, human
Protocol: (§7) Exponentially growth cells were treated with or without drugs for several hours. Cells were then collected and fixed with ice-cold 70% methanol. DNA was stained with propidium iodide as described previously. Ten thousand stained cells were analyzed on a Becton Dickinson fluorescence-activated cell sorter (FACS).

HS-18 cells = experiment: Cell cycle analysis (propidium iodide, FACS), HS-18; assay type: cell-based, human
Protocol: as §7

TE 671 cells = experiment: Clonogenic assay ET-743/DOX, TE 671; assay type: cell-based, human; conditions: 1 hr exposures, isobologram analysis and Combination Index
Protocol: In vitro: The effect of each drug or combination after 1 hr exposures was evaluated by clonogenic assay.

sc transplanted TE671 = experiment: ET-743/DDP against sc transplanted TE671; assay type: in vivo, human; conditions: single drugs at MTD or combination
ovarian 1 A 9 tumor = experiment: ET-743/DDP against ovarian 1A9 tumor in vivo; design: species or system human; conditions: single agents
Text: The ovarian 1 A 9 tumor that is normally resistant to both ET-743 and DDP as single agents, in combination produced a tumor growth inhibition greater than 50%.

[3] = system: human ovarian carcinoma HOC8; experiment: ET-743/DDP against orthotopically transplanted HOC8; assay type: in vivo; conditions: HOC8 orthotopic, peritoneal nodules with ascites; single agents
chondrosarcoma (CSHA) = experiment: Hollow fiber (HF) model, chondrosarcoma; assay type: in vivo
Text: (§8) Osteosarcoma xenografts produced similar results of 17% vs. 43%. […] The one exception was in NSCL were Et743 alone was not active (62% T/C) but DPP followed by Et743 produced CR (<1% T/C). In renal xenografts Et743 alone was very active (22% T/C) but Et743 followed by VINB also produced CR (<1% T/C). Separate studies are underway with other standard agents in breast, renal, melanoma and gastric tumor xenografts.

fibrosarcoma (SW684) = experiment: Hollow fiber (HF) model, fibrosarcoma; assay type: in vivo; conditions: DOX 8 mg/Kg 1 hr pre-Et743 0.2 mg/Kg vs Et743 alone, qdx5
Text: as §8

osteosarcoma (OSA-FH) [4] = experiment: Hollow fiber (HF) model, osteosarcoma; assay type: in vivo
Text: as §8

osteosarcoma (OSA-FH) [5] = experiment: Osteosarcoma xenografts; assay type: in vivo; conditions: DOX 1 hr pre-Et743 vs Et743 alone
Text: as §8

ovary (MRI-H-1834) = experiment: Hollow fiber (HF) model, ovary; assay type: in vivo; conditions: Et743 0.2 mg/Kg pre-DDP 12 mg/Kg vs Et743 alone
Text: as §8

xenograft = experiment: Xenograft, Et743 pre-DDP (tumor not named); assay type: in vivo; conditions: xenograft data; Et743 pre-DDP vs Et743 alone
Text: as §8

NSCL (LX-1) = experiment: NSCL tumor, Et743 and DDP; assay type: in vivo; conditions: Et743 alone vs DDP followed by Et743
Text: as §8

renal (MRI-H-121) = experiment: Renal xenografts, Et743 and VINB; assay type: in vivo; conditions: Et743 alone vs Et743 followed by VINB 6 mg/Kg
Text: as §8

[6] = Plasma levels of ET-743 in rats pretreated with dex; assay type: in vivo; conditions: rats given dex 50 mg/kg daily for 3 days prior to ET-743, compared to ET-743 alone
Protocol: (§9) Plasma levels of ET-743 in rats which received dex (50 mg/kg) daily for 3 days prior to ET-743 were not decreased compared to those in rats on ET-743 alone. Furthermore, the activity of ET-743 against B16 melanoma implanted into mice was not impeded by dexamethasone.

B16 melanoma = experiment: Activity of ET-743 against B16 melanoma with dexamethasone; assay type: in vivo; conditions: mice
Protocol: as §9

liver = conditions: rat
Protocol: In the light of the antiinflammatory activity of dex, we investigated its effect on liver damage induced by ET-743 in the rat. Female Wistar rats received a single iv dose of ET-743 (40 μg/kg). Some rats were pretreated with a single oral dose of dex either at 1, 5, 10 or 20 mg/kg 24 h prior to ET-743 treatment. Liver pathology and plasma concentrations of alkaline phophatase (ALP), aspartate aminotransferase (GOT) and total bilirubin (TB) were assessed up to 3 days post ET-743 administration. Conventional histological sections of the livers were examined by light microscopy.

[7] = system: mismatch repair (MMR) deficient cells; conditions: MMR deficient vs proficient cells; previous studies; cited from earlier work
NER deficient cells = NER deficient cells very sensitive to cisplatin; previous studies; cited from earlier work
melanoma (MEXF 989) = conditions: Hendriks et al. 1999; cited from earlier work
NSCL (LXFL 529) = conditions: Hendriks et al. 1999; cited from earlier work
ovary (HOC 22) = conditions: Hendriks et al. 1999; cited from earlier work
breast carcinoma (MX-1) = conditions: Hendriks et al. 1999; cited from earlier work
[8] = single i.v. treatment at tumor approx. 100 mg, drug alone (ET-743 0.1 mg/kg; Dx 10 mg/kg)
[9] = 24 h after treatment with approximate IC50 dose
[10] = 72 h after treatment with approximate IC50 dose
[11] = DOX 8 mg/Kg 1 hr pre-Et743 0.2 mg/Kg vs Et743 alone, qdx5
[12] = ET-743 40 μg/kg iv alone, after 2 days
[13] = Homo sapiens, HT-1080, 72 h, read-out: IC50 for human soft tissue sarcoma cells, HT-1080
[14] = Homo sapiens, 72 h, read-out: IC50 for human soft tissue sarcoma cells, HS-18

Ecteinascidin 743 [ET-743]
antitumor effect in words ([1]; TE671 in mice, alone or combination): inactive or marginally active
Log 10 Cell Kill (LCK) [1, 8]: 0.132
tumor weight inhibition (TWI) [1, 8]: 46%
antitumor effect in words [2]: effective
antitumor effect in words (UV2237/ADR): inactive or marginally active
IC50 (HT-1080; HT 1080 fibrosarcoma cell line, read-out: IC50): 0.01 nM
IC50 (HS-18; HS-18 liposarcoma cell line, read-out: IC50): 0.27 nM
% G1 (HT-1080 cells; [9]): 42.6%
% G2-M (HT-1080 cells; [9]): 21.3%
% S phase (HT-1080 cells; [9]): 36.1%
% G1 (HT-1080 cells; [10]): 83.1%
% G2-M (HT-1080 cells; [10]): 6.7%
% S phase (HT-1080 cells; [10]): 10.2%
% G1 (HS-18 cells; [9]): 32.4%
% G2-M (HS-18 cells; [9]): 20.0%
% S phase (HS-18 cells; [9]): 47.6%
% G1 (HS-18 cells; [10]): 86.7%
% G2-M (HS-18 cells; [10]): 4.9%
% S phase (HS-18 cells; [10]): 8.4%
anti-tumor activity / interaction in clonogenic assay (TE 671 cells): showed anti-tumor activity
antitumor effect in words (sc transplanted TE671): partially sensitive
sensitivity of tumor to single agent (ovarian 1 A 9 tumor): resistant
sensitivity of tumor to single agent [3]: resistant
T/C (chondrosarcoma (CSHA); [11]): 10%
T/C (chondrosarcoma (CSHA); Et743 0.2 mg/Kg pre-DDP 12 mg/Kg vs Et743 alone): 19%
T/C (fibrosarcoma (SW684)): 48%
T/C (osteosarcoma (OSA-FH) [4]; [11]): 34%
T/C (osteosarcoma (OSA-FH) [4]; Et743 pre-DDP and Et743 alone, equivalent activities): 36%
T/C (osteosarcoma (OSA-FH) [5]): 43%
T/C (ovary (MRI-H-1834)): 100%
T/C (xenograft): 66%
T/C (NSCL (LX-1)): 62%
T/C (renal (MRI-H-121)): 22%
Plasma levels of ET-743 [6]: not decreased
activity of ET-743 against B16 melanoma (B16 melanoma): not impeded
Plasma levels of ALP (liver; [12]): significantly elevated
Plasma levels of GOT (liver; [12]): significantly elevated
plasma TB concentrations (liver; ET-743 40 μg/kg iv alone, commenced on day 2): dramatic increase
liver pathology (liver; ET-743 40 μg/kg single iv alone, 2 days post treatment): bile duct inflammation, striking degenerative changes in biliary epithelial cells and zones of hepatic necrosis
sensitivity to ET-743 compared with proficient cells [7]: equally sensitive
times less sensitive to ET-743 (NER deficient cells): 6-8 times
in vivo tumor growth inhibition, single agent (melanoma (MEXF 989)): complete remissions
in vivo tumor growth inhibition, single agent (NSCL (LXFL 529)): complete remissions
in vivo tumor growth inhibition, single agent (ovary (HOC 22)): complete remissions
in vivo tumor growth inhibition, single agent (breast carcinoma (MX-1)): complete remissions

CC(=O)O[C@H]1C(=O)[C@@]2(C)[C@H]([C@H](OC(=O)c3ccccc3)[C@]3(O)C[C@H](OC(=O)[C@H](O)[C@@H](NC(=O)c4ccccc4)c4ccccc4)C(C)=C1C3(C)C)[C@]1(OC(C)=O)CO[C@@H]1C[C@@H]2O [Paclitaxel]
IC50 (HT-1080; [13]): 1.3 nM
IC50 (HS-18; [14]): 10 nM
% G1 (HT-1080 cells; [9]): 45.4%
% G2-M (HT-1080 cells; [9]): 17.3%
% S phase (HT-1080 cells; [9]): 37.3%
% G1 (HT-1080 cells; [10]): 86.0%
% G2-M (HT-1080 cells; [10]): 5.0%
% S phase (HT-1080 cells; [10]): 9.0%
% G1 (HS-18 cells; [9]): 32.8%
% G2-M (HS-18 cells; [9]): 15.5%
% S phase (HS-18 cells; [9]): 52.5%
% G1 (HS-18 cells; [10]): 23.5%
% G2-M (HS-18 cells; [10]): 26.2%
% S phase (HS-18 cells; [10]): 58.7%

COc1cc(NCc2ccc3nc(N)nc(N)c3c2C)cc(OC)c1OC [TMTX, trimetrexate]
IC50 (HT-1080; [13]): 6 nM
IC50 (HS-18; [14]): 70000 nM
% G1 (HT-1080 cells; [9]): 31.9%
% G2-M (HT-1080 cells; [9]): 11.3%
% S phase (HT-1080 cells; [9]): 56.8%
% G1 (HT-1080 cells; [10]): 32.0%
% G2-M (HT-1080 cells; [10]): 14.4%
% S phase (HT-1080 cells; [10]): 53.7%
% G1 (HS-18 cells; [9]): 44.2%
% G2-M (HS-18 cells; [9]): 1.9%
% S phase (HS-18 cells; [9]): 53.8%
% G1 (HS-18 cells; [10]): 35.5%
% G2-M (HS-18 cells; [10]): 7.0%
% S phase (HS-18 cells; [10]): 57.6%
